Publication PMC9995496, “A screen for MeCP2-TBL1 interaction inhibitors using a luminescence-based assay” (Scientific Reports, 2023)
Structures can show the parent of a compound that is named as a salt.

Each compound was assayed on PRKACA-PRKAR2A interaction (SmBiT-PRKACA / LgBiT-PRKAR2A), protein kinase A. Conditions: counter-screen for NanoLuc interference, 0.5 h, 20 µM, inhibitor, Inh (PKA).
Parameters: NanoLuc complementation counter-screen in cell extract, PRKACA with PRKAR2A, loss of luminescence, detects NanoLuc interference

SMILES | Inh (PKA)
O=C(O)/C=C/c1ccc(Cn2ccnc2)cc1 [UM0141799:01, Ozagrel] | 1.747%
CN1CCc2nc(C(=O)N[C@@H]3C[C@@H](C(=O)N(C)C)CC[C@@H]3NC(=O)C(=O)Nc3ccc(Cl)cn3)sc2C1 [UM0141546:01, Edoxaban tosylate monohydrate] | 2.853%
Oc1cccc(-c2nc(N3CCOCC3)c3oc4ncccc4c3n2)c1 [UM0127905:03, PI-103] | 4.016%
C[C@@H](N)[C@H]1CC[C@H](C(=O)Nc2ccncc2)CC1 [UM0141498:02, Y-27632] | -5.28%
O=C(O)Cc1ccccc1Nc1c(Cl)cccc1Cl [UM0142393:01, Diclofenac Diethylamine] | 11.28%

Same assay, conditions: counter-screen for NanoLuc interference; 0.5 h, 20 µM; inhibitor

SMILES | Inh (PKA)
c1ccc2c(Oc3nc(Nc4ccc(N5CCOCC5)cc4)c4ncn(C5CCCCC5)c4n3)cccc2c1 [UM0141962:01, Purmorphamine] | 11.44%
C=CC(=O)Nc1cccc(Oc2nc(Nc3ccc(N4CCN(C)CC4)cc3OC)ncc2Cl)c1 [UM0141397:01, WZ4002] | 30.48%
CNS(=O)(=O)Cc1ccc2[nH]cc(CCN(C)C)c2c1 [UM0141877:01, Sumatriptan Succinate] | 0.457%
Cc1cc2c(C(=O)NC[C@H](C)c3ccccc3)c(O)c(O)cc2c(O)c1-c1c(C)cc2c(C(=O)NC[C@H](C)c3ccccc3)c(O)c(O)cc2c1O [UM0141759:01, Sabutoclax] | 12.84%
O=c1[nH]cnc2c1ncn2[C@H]1CC[C@@H](CO)O1 [UM0142031:01, Didanosine] | -1.093%
CCOC(=O)N1c2ccc(C(F)(F)F)cc2[C@@H](N(Cc2cc(C(F)(F)F)cc(C(F)(F)F)c2)C(=O)OC)C[C@H]1CC [UM0141819:01, Torcetrapib] | 4.254%
COc1c(C)c2c(c(O)c1C/C=C(\C)CCC(=O)OCCN1CCOCC1)C(=O)OC2 [UM0141793:01, Mycophenolate Mofetil] | 3.705%
COc1ccc(-c2ccc3c(N4CCOCC4)nc(N4C[C@@H](C)O[C@@H](C)C4)nc3n2)cc1CO [UM0141868:01, KU-0063794] | 1.476%
CS(=O)(=O)Nc1ccc([N+](=O)[O-])cc1Oc1ccccc1 [UM0118531:03, Nimesulide] | 82.23%
O=C(O)[C@@]1(CCCCCCOc2ccc(Cl)cc2)CO1 [UM0142794:01, (R)-(+)-Etomoxir sodium salt] | 1.565%
O=c1[nH]c2ccccc2n1C1CCN(CCCC(c2ccc(F)cc2)c2ccc(F)cc2)CC1 [UM0118378:03, Pimozide] | 11.2%
CCCN1CCCC[C@H]1C(=O)Nc1c(C)cccc1C [UM0142404:01, Ropivacaine HCl] | 0.01917%
Cn1cc(C2=C(c3cn(C4CCN(Cc5ccccn5)CC4)c4ccccc34)C(=O)NC2=O)c2ccccc21 [UM0130974:02, Enzastaurin (LY317615)] | 49.88%
CN1CCc2cc(Nc3ncc(C4CC4)c(NCCCNC(=O)C4CCC4)n3)ccc2C1 [UM0142756:01, MRT68921] | 22%
COC(=O)Nc1nc2cc(C(=O)c3ccc(F)cc3)ccc2[nH]1 [UM0142358:01, Flubendazole] | 6.18%
Cc1nc(Nc2n[nH]c3c2CN(C(=O)N[C@H](CN(C)C)c2ccccc2)C3(C)C)c2sccc2n1 [UM0141601:01, PF-3758309] | 66.65%
COc1cc2c(Nc3ccc(NC(=O)c4ccccc4)cc3)ncnc2cc1OCCCN1CCOCC1 [UM0141710:01, ZM 447439] | 1.101%
CC(=O)N[C@@H](CC(C)C)C(=O)N[C@@H](CC(C)C)C(=O)N[C@H](C=O)CCCNC(=N)N [UM0141467:01, Leupeptin, Microbial] | 0.9653%
S=C(S)O[C@@H]1C[C@@H]2C[C@@H]1[C@H]1CCC[C@@H]21 [UM0141538:01, D609] | 17.68%
Fc1ccccc1-c1nc2ccn(Cc3ccc(-c4ccc(C(F)(F)F)cc4C(F)(F)F)nn3)cc-2n1 [UM0141636:01, Tegobuvir] | 1.649%

SMILES | Inh (PKA)
CCC(CC)O[C@@H]1C=C(C(=O)O)C[C@H](N)[C@H]1NC(C)=O [UM0141596:01, Oseltamivir acid] | 1.334%
N#C[C@@H]1CCCN1C(=O)CNC12CC3CC(CC(O)(C3)C1)C2 [UM0141675:01, Vildagliptin (LAF-237)] | 0.7818%
COc1cccc2c1C(=O)c1c(O)c3c(c(O)c1C2=O)C[C@@](O)(C(=O)CO)C[C@@H]3O[C@H]1C[C@H](N)[C@H](O[C@@H]2CCCCO2)[C@H](C)O1 [UM0142479:01, Pirarubicin] | 33.32%
Cc1c(Cn2c(C)nc3c(C(=O)O)cc(N4CCOCC4)cc32)cccc1C(F)(F)F [UM0142436:01, GSK2636771] | -0.2162%
CN(CCOc1ccc(NS(C)(=O)=O)cc1)CCc1ccc(NS(C)(=O)=O)cc1 [UM0142033:01, Dofetilide] | -0.1542%
C1CCc2nnnn2CC1 [UM0118375:03, Pentylenetetrazole] | -0.7973%
CC(C)(O)CC(=O)NCCn1ccc2ncnc(Nc3ccc(Oc4cccc(C(F)(F)F)c4)c(Cl)c3)c21 [UM0142073:01, TAK-285] | 28.39%
CNCc1ccc(-c2cc(-c3nc(-c4ccc(S(=O)(=O)C(C)C)cc4)cnc3N)on2)cc1 [UM0135462:02, VE-822] | 14.15%
O=c1ncccn1[C@@H]1O[C@H](CO)[C@@H](O)[C@H]1O [UM0128549:02, Zebularine] | -0.4631%
CN[C@@H](C)C(=O)N[C@H]1CN(C(=O)CC(C)C)CC[C@H]2CC[C@@H](C(=O)NC(c3ccccc3)c3ccccc3)N2C1=O [UM0141504:01, AT-406 (SM-406)] | 0.8145%
CCCCS(=O)(=O)N[C@@H](Cc1ccc(OCCCCC2CCNCC2)cc1)C(=O)O [UM0141561:03, Tirofiban hydrochloride monohydrate] | 1.888%
COc1cc(Nc2c(C#N)cnc3cc(OCCCN4CCN(C)CC4)c(OC)cc23)c(Cl)cc1Cl [UM0141444:01, Bosutinib (SKI-606)] | 20.21%
CC(C)N(CCCNC(=O)Nc1ccc(C(C)(C)C)cc1)C[C@H]1O[C@@H](n2ccc3c(N)ncnc32)[C@H](O)[C@@H]1O [UM0141745:01, EPZ004777] | 1.222%
CN1C(C(=O)Nc2ccccn2)=C(O)c2sc(Cl)cc2S1(=O)=O [UM0142259:01, Lornoxicam] | 33.4%
COc1cccc(OCCCN)c1-c1cc(Nc2cnc(C#N)cn2)n[nH]1 [UM0142169:01, LY2606368] | 14.04%
COc1ccc(S(=O)(=O)N2CCC(N3CCC(C)CC3)CC2)cc1 [UM0142132:01, TASIN-1] | 4.343%
CCC(=O)N1CCN(c2ccc(-n3c(=O)ccc4cnc5ccc(-c6cnc7ccccc7c6)cc5c43)cc2C(F)(F)F)CC1 [UM0141981:01, Torin 1] | 8.063%
O=C(NNc1ccccc1)c1ccncc1 [UM0141803:01, PluriSIn #1 (NSC 14613)] | 1.467%
COCCOC(=O)C1=C(C)NC(C)=C(C(=O)OC(C)C)C1c1cccc([N+](=O)[O-])c1 (stereo not shown) [UM0142061:01, Nimodipine] | 89.11%
Nc1ncnc2c1ncn2C1CCCO1 (stereo not shown) [UM0142780:01, SQ 22536] | -2.134%

SMILES | Inh (PKA)
Nc1nc(N)nc(-c2cc(Cl)ccc2Cl)n1 [UM0142318:01, Irsogladine] | 5.104%
COc1ccc2cc(-c3nc(-c4ccc([S+](C)[O-])cc4)[nH]c3-c3ccncc3)ccc2c1 (stereo not shown) [UM0141919:01, Tie2 kinase inhibitor] | 68.85%
CS(=O)(=O)c1ccc(-c2nnc(/C=C/c3nnc(-c4ccc(C#N)cc4)o3)n2-c2ccccc2Cl)nc1 [UM0142653:01, G007-LK] | 3.502%
C[C@@H](Oc1ccc2[nH]nc(/C=C/c3cnn(CCO)c3)c2c1)c1c(Cl)cncc1Cl [UM0141583:01, LY2874455] | 40.12%
Cc1cc(C)nc(NC(=S)N2CCN(Cc3ccc(C(F)(F)F)cc3)CC2)c1 [UM0142833:01, NCT-503] | 4.726%
CN(C)C(=O)c1ccc(S(=O)(=O)c2ccc(NC(=O)[C@@](C)(O)C(F)(F)F)c(Cl)c2)cc1 [UM0142195:01, AZD7545] | 0.1491%
O=C(c1ccc(Nc2nccc(-c3cc4ccccc4s3)n2)cc1)N1CCC(N2CCCC2)CC1 [UM0142314:01, IKK-16 (IKK Inhibitor VII)] | 16.61%
COc1cc(N2CCC(N3CCN(C)CC3)CC2)ccc1Nc1ncc(Cl)c(Nc2ccccc2P(C)(C)=O)n1 [UM0141393:01, AP26113] | 6.926%
C=C1CC[C@@H]2[C@](C)(CO)[C@H](O)CC[C@@]2(C)[C@H]1C/C=C1\C=COC1=O [UM0142846:01, Dehydroandrographolide] | 12.37%
O=P(O)(O)C(O)(Cc1cccnc1)P(=O)(O)O [UM0141876:01, Risedronate Sodium] | -0.1627%
Cc1ccnc2c1NC(=O)c1cccnc1N2C1CC1 [UM0142060:01, Nevirapine] | 3.121%
Cc1cnc(-c2cnc(NCCNc3ccc(C#N)cn3)nc2-c2ccc(Cl)cc2Cl)[nH]1 [UM0141499:01, CHIR-99021 (CT99021)] | 50.27%
CC(C)CCN1c2nc(Nc3cc(F)c(O)c(F)c3)ncc2N(C)C(=O)C1C (stereo not shown) [UM0142455:01, BI-D1870] | 64.82%
C=CC(=O)Nc1ccc(CN2C(=O)N(c3cc(OC)cc(OC)c3)Cc3cnc(Nc4ccc(N5CCN(C)CC5)cc4)nc32)cc1 [UM0142120:01, FIIN-2] | 9.452%
CN(C)C(=O)c1cc2cnc(Nc3ccc(N4CCNCC4)cn3)nc2n1C1CCCC1 [UM0142108:01, LEE011] | 5.257%
C=CCNc1ncnc2ccc(Br)cc12 [UM0142792:01, SMER 28] | 2.149%
COc1ccc([C@@H]2CC(=O)c3c(O)cc(O)cc3O2)cc1O [UM0142860:01, Hesperitin] | 3.061%
CCCC(=O)OCOC(=O)C1=C(C)NC(C)=C(C(=O)OC)C1c1cccc(Cl)c1Cl (stereo not shown) [UM0142245:01, Clevidipine Butyrate] | 81.79%
Nc1nccc2c1ncn2[C@@H]1O[C@H](CO)[C@@H](O)[C@H]1O [UM0142748:01, 3-Deazaadenosine] | -15.82%
